Reference: patent US20200024246A1, “POGOSTONE DERIVATIVES AND METHODS OF USING THE SAME” (Hamyard Associates LLC, priority 2018, published 2020)
Entries after “also recorded” stand apart in the source; their conditions may differ.

Assays:
[1] = test system: 3-4 instar Aedes aegypti larvae; assay: Mosquito larvicide bioassay; assay type: in vivo
Experimental: Mosquito larvicide bioassays were performed by introducing various concentrations of test compounds (pyrone derivatives and rotenone) into acetone at various concentrations. 200 uL of these solutions were added to individual cups containing 10, 3-4 instar Aedes aegypti larvae and 25 mL of DI water. 2 mg of Tetramin™ was provided to each cup as a food source. […] Ataxia was used as the indicator of larval mortality. At least 5 concentrations were used which caused between 10 and 90% mortality. LC50 values were calculated using a PROC PROBIT model in SAS 9.4.

German roaches = assay: Spray-cup testing, German roaches (FIG. 3b); assay type: in vivo, German roach; conditions: Formula 13 2.5% w/v in water vs thymol 2.5% or 10% w/v
Experimental: (§1) 10 adults of various arthropod species used for this characterization were placed into 8 oz. ice cream cups with tulle placed over the top to prevent the escape of arthropods from the container. Test formulations were added to spray bottles ([…]™) and applied at the same distance and spray number to eliminate variation between manufacturer spray bottles. For all experiments, spray bottles were set to mist in order to prevent excess formulation from accumulating in the cups. […] Mortality was recorded at 1 min, 5 min, 10 min, 15 min, 30 min, 4 hours, and 8 hours for each replicate. A minimum of 3 replicates of 10 arthropods/cup/replicate were performed for each formulation. Data was modeled using a logarithmic regression to show the speed-to-kill of each formulation and highlight differences among treatment groups. Different spray amounts were used for each arthropod, depending on susceptibility, e.g.:
German roaches=10 sprays, 3 in […]

maize weevils = assay: Spray-cup testing, maize weevils (FIG. 3c); assay type: in vivo, maize weevil; conditions: Formula 13 2.5% w/v in water vs thymol 2.5% or 10% w/v
Experimental: as §1
Maize weevils=8 sprays, 3 in […]

soybean aphids = assay: Leaf spray/dip test, soybean aphids (FIG. 4a); assay type: in vivo, soybean aphid; conditions: soybean aphids on dipped soybean leaves, 48 hours
Experimental: (§2) Soybean leaves were removed from a previously uninfested plant and dipped in solution containing water, various concentrations of compounds to be screened, and 0.5% industrial emulsifier. Leaves were allowed to air dry for 30 minutes before the beginning of the assay to assure excess formulation was not present on the treated leaves. Ten two-spotted spider mites or ten soybean aphid adults were gently placed on the top surface of the treated leaves. A minimum of three replicates were performed for each formulation tested in this experiment. Mortality of aphids or spider mites was recorded at 48 hours after their introduction to treated leaves. All treatments were compared to a water+emulsifier control and a thymol+emulsifier control. Data was presented as the average mortality across all replicates along with the standard error of the mean.

two-spotted spider mites = assay: Leaf spray/dip test, spider mites (FIG. 4b); assay type: in vivo, two-spotted spider mite; conditions: spider mites on dipped soybean leaves, 48 hours
Experimental: as §2

[2] = test system: adult female Aedes aegypti mosquitoes; assay: Formula 13 after pre-treatment with detoxification enzyme inhibitors (FIG. 10); assay type: in vivo
Experimental: Combinations of 2000 μg/mL Formula 13 and various detoxification enzyme inhibitors were applied to adult female mosquitoes in a volume of 0.2 μL to identify which detoxification pathway was most responsible for clearance of bioactive pogostone from the insect. A dose of 0.2 uL of either 1000 μg/mL of S,S,S-tributyl phosphorotrithioate (DEF) or 5000 μg/mL piperonyl butoxide (PBO) or 5000 μg/mL diethyl maleate (DEM) was applied 4 hours before a dose of 0.2 uL 2000 μg/mL of Formula 13 was applied to adult Aedes aegypti. […] The concentrations of inhibitors were chosen due to their inability to cause toxicity on their own at this application rate. The concentration of Formula 13 was chosen as the approximate LD25 of this compound against adult female Aedes aegypti mosquitoes. Combinations that caused statistically higher levels of mortality than pyrone 7 applied alone were considered informative. The goal of this exploration was to determine which processes might be most valuable in the detoxification of these derivatives.

adult house flies = assay: Topical application of pogostone derivatives with PBO or plant essential oil on house flies; assay type: in vivo, house fly; conditions: house flies
Experimental: Combinations of select pogostone derivatives with select concentrations of PBO or plant essential oils was performed. […] Synergists were applied as a subsequent application directly after the application of pogostone derivatives. Concentrations of synergists (plant oils or PBO) were chosen that produced no mortality at 24 hours when applied alone.
To assess the ability of PBO to increase the toxicity of a wide variety of pogostone derivatives, PBO and the pogostone derivatives were applied in combination to the pronotum of house flies.
Finally, the potential of plant essential oils to synergize the effect of Formula 30 was assessed.

[3] = test system: Giant foxtail (Setaria faberi); assay: Soil drench herbicidal test, foxtail; assay type: in vivo; conditions: for % mortality: Foxtail, Rep 1 and 2
Experimental: (§3) Dandelion (Taraxacum officinale) seeds were obtained from the Department of Agronomy at Iowa State University. Individual seeds were sown for each pot (6″ wide×4.5″ deep) with approximately 800 mL of soil for each plan. Only plants that germinated were used for the study. Plants were treated 1-2 weeks post emergence. Plants were watered every 2-3 days as needed. Giant foxtail (Setaria faberi) seeds were obtained from the Department of Agronomy at Iowa State University. Three seeds were sown for each pot (6″ wide×4.5″ deep) with approximately 800 mL of soil for each plan. Only plants that germinated were used for the study. Plants were treated 1-2 weeks post emergence. Plants were watered every 2-3 days as needed.
Formulations of the various active ingredients were created using the disclosed pogostone derivatives and Triton-X 100 to aid in the solvation of the active ingredient. Formulations consisted of 0.5% active ingredient by weight. […] 40 mL of formulation (either […] active ingredient) was applied to each pot containing approximately 3-5 plants per pot at 2-3 weeks after emergence. Observations were performed 3 days and 2 weeks after soil drench to determine the effects of the treatments on the various types and stages of plants. Phytotoxicity is reported as percentage of total plants treated compared to a control treatment that was exposed to a similar formulation (without the active monoterpenoid derivatives). Technical grade 2,4-dichlorophenoxyacetic acid (2,4-D) was used as the commercial comparison for phytotoxicity. For its solvation, potassium hydroxide was introduced at a 1:1 molar ratio with 2,4-D to ensure this molecule would adequately dissolve in water.

[4] = test system: Dandelion (Taraxacum officinale); assay: Soil drench herbicidal test, dandelion; assay type: in vivo; conditions: 40 mL of 0.5% soil drench, FIG. 12; words
Experimental: as §3
Formulations of the various active ingredients were created using the disclosed pogostone derivatives and Triton-X 100 to aid in the solvation of the active ingredient. Formulations consisted of 0.5% active ingredient by weight. […] 40 mL of formulation ([…] active ingredient) was applied to each pot containing approximately 3-5 plants per pot at 2-3 weeks after emergence. Observations were performed 3 days and 2 weeks after soil drench to determine the effects of the treatments on the various types and stages of plants. […]

[5] = test system: two-spotted spider mites, soybean aphids, maize weevils, German cockroaches, and European corn borers; assay: Screen of Formula 13 against other arthropod pest species; assay type: in vivo; conditions: words
house flies = assay: Topical application on house flies; conditions: House Fly Toxicity; topical
[6] = test system: Pyrethroid-resistant strain of Aedes aegypti (Puerto Rican strain); assay: Toxicity to insecticide-resistant mosquitoes (FIG. 1); conditions: dose response curves FIG. 1

## CC(C)CCC(=O)c1c(O)c2ccccc2oc1=O [Formula 13]
[1]; Aedes aegypti, larval mortality at 24 hours, in 25 mL DI water, read-out: LC50
  LC50: 1.34 µg/mL
[1]; words
  larvicidal properties compared with natural pogostone or rotenone: possessed better larvicidal properties than natural pogostone; also recorded: possessed better larvicidal properties than rotenone; also recorded: performed as well as the rotenone
German roaches
  efficacy (mortality) compared with thymol: outperformed thymol at all time points; also recorded: surpassed the efficacy of thymol at both an equal or higher concentration
Maize weevils
  efficacy (mortality) compared with thymol: outperformed thymol at all time points; also recorded: performed better than thymol applied at an equal concentration and as well as thymol applied in a 10% concentration
Soybean aphids
  mortality compared with thymol or control: performed better than thymol; also recorded: significantly more effective at killing soybean aphids compared to thymol or a control
two-spotted spider mites
  mortality compared with thymol or control: performed better than thymol
[2]; 1000 μg/mL DEF 4 hours before 2000 μg/mL Formula 13, 0.2 uL each
  toxicity of Formula 13 after DEF (inhibition of esterases): significantly increased the toxicity of Formula 13
[2]; 5000 μg/mL DEM 4 hours before 2000 μg/mL Formula 13, 0.2 uL each
  toxicity of Formula 13 after DEM (decreasing glutathione S-transferase activity): second-most important enzyme system
[2]; 5000 μg/mL PBO 4 hours before 2000 μg/mL Formula 13, 0.2 uL each
  toxicity of Formula 13 after PBO (inhibition of monooxygenases): most significant for increasing the toxicity of Formula 13
[2]; 0.2 uL applied topically to adult female Aedes aegypti
  approximate LD25 (concentration applied): ~2000 µg/mL
Adult house flies; LD50 alone versus in combination with PBO
  SR (synergistic ratio): 17.8
Adult house flies; topical, derivative alone or in combination with PBO
  LD50: 5950 µg/g
[3]; 40 mL of 0.5% soil drench, FIG. 12, words
  phytotoxicity in foxtail: significant phytotoxicity
[3]; 2 weeks after soil drench - 40 mL of 0.5% solution
  % mortality: 100%
[3]; 3 days after soil drench - 40 mL of 0.5% solution
  % mortality: 50%
[4]
  phytotoxicity in dandelion: little phytotoxicity
[5]
  toxicity compared with thymol: more toxic than a commonly used natural insecticide, thymol
House flies
  LD50 (ug/g fly): 5950 ug/g fly
[6]
  insecticidal capacity compared with natural pyrethrins: outperformed natural pyrethrins
